Reference: patent US7064117B2, “Anti-cancer 2,3-dihydro-1H-pyrrolo[3,2-f]quinoline complexes of cobalt and chromium” (Auckland Uniservices Limited, priority 2001, dated 2006)
Read-outs that look alike come from different tables or passages of the source. One block for each compound: values may come before it.

Legend:
EMT6 = experiment: cytotoxicity, 4 h aerobic drug exposure, EMT6; format: cell-based, murine; details: read-out: IC50 EMT6
UV4 cell line = experiment: cytotoxicity, 4 h aerobic drug exposure, UV4; format: cell-based, Chinese hamster; details: read-out: IC50 UV4
AA8 = experiment: cytotoxicity, 4 h aerobic drug exposure, AA8; format: cell-based, Chinese hamster; details: read-out: IC50 AA8
SKOV3 [1] = experiment: cytotoxicity, 4 h aerobic drug exposure, SKOV3; format: cell-based, human; details: read-out: IC50 SKOV3
SKOV3 [2] = experiment: cytotoxicity under oxic and anoxic conditions, SKOV3; format: cell-based, human; details: for IC50: Homo sapiens, SK-OV-3, 4 h exposure
Protocol: (§1) The metal complexes also show an ability to be activated by endogenous enzymes under hypoxia, as shown for metal complex M1 in Table 4 and FIG. 2. […] Thus the metal complexes have utility as hypoxia- as well as radiation-activated cytotoxins.
(§2) In Table 4, A549wt/s is a wild-type human […] carcinoma cell line, SKOV3 is a human ovarian cancer cell line and WiDr-2 is a clonal cell line derived from the WiDr human colon carcinoma line. IC50s (in μM are determined under both oxic and hypoxic conditions, and the hypoxic cytotoxicity ratio (HCR) is the average intra-experiment ratio of the IC50s measured under oxic and hypoxic conditions.

HT29 cultures = experiment: activation by endogenous enzymes under hypoxia (Table 4 and FIG. 2); format: cell-based; details: summary of Table 4 and FIG. 2
Excerpt: as §1

A549 wt/s = experiment: cytotoxicity under oxic and anoxic conditions, A549 wt/s; format: cell-based, human; details: for IC50: Homo sapiens, A549, 4 h exposure
Protocol: as §1, §2

[3] = tested on: panel of mammalian cell lines; experiment: cytotoxicity in a panel of mammalian cell lines (summary in words); details: summary of Table 2
[4] = Cricetulus griseus, CHO-AA8, 4 h
[5] = average intra-experiment ratio of IC50s oxic/hypoxic
[6] = 4 h aerobic exposure, mean ± sem

Compound: COc1ccc(/C=C/C(=O)N2CC(CCl)c3c2cc(O)c2ncccc32)cc1O (centres unmarked)
melting point: 215 to 218 °C

Compound: Cl.Cl.Cl.Cl.O=S(=O)(O)CCCN1CCNCCN(CCCS(=O)(=O)O)CCNCC1
melting point: 279 to 281 °C

Compound: Oc1cccc2cccnc12 [Compound 8-HQ, 8-hydroxyquinoline, reference compound]
IC50 (EMT6; Mus musculus, EMT6, 4 h): 3.92 ± 1.04 µM | IC50 (UV4 cell line; Cricetulus griseus, UV4, 4 h): 2.16 ± 0.12 µM | IC50 (AA8; [4]): 2.07 ± 0.02 µM | IC50 (SKOV3 [1]; Homo sapiens, SK-OV-3, 4 h): 4.07 ± 0.89 µM

Compound: COc1cc2cc(C(=O)N3CC(CCl)c4c3cc(O)c3ncccc43)[nH]c2c(OC)c1OC (centres unmarked) [Compound 18a, 1-(Chloromethyl)-5-hydroxy-3-[(5,6,7-trimethoxyindol-2-yl)carbonyl]-2,3-dihydro-1H-pyrrolo[3,2-f]quinoline]
IC50 (SKOV3 [2]; anoxic, read-out: IC50 SKOV3 anoxic): 0.00035 ± 9.3e-05 µM | IC50 (SKOV3 [2]; oxic, read-out: IC50 SKOV3 oxic): 0.00025 ± 3.7e-05 µM | HCR SKOV3 (hypoxic cytotoxicity ratio) (SKOV3 [2]; [5]): 0.61(1) | activation by endogenous enzymes under hypoxia, in words (HT29 cultures): not activated by endogenous enzymes under hypoxic conditions | IC50 (EMT6; Mus musculus, EMT6, 4 h): 5.1e-05 ± 8e-06 µM | IC50 (A549 wt/s; anoxic, read-out: IC50 A549 wt/s anoxic): 0.05 ± 0.014 nM | IC50 (A549 wt/s; oxic, read-out: IC50 A549 wt/s oxic): 0.05 ± 0.016 nM | HCR A549 wt/s (hypoxic cytotoxicity ratio) (A549 wt/s; [5]): 0.79 ± 0.35(2) | IC50 (UV4 cell line; Cricetulus griseus, UV4, 4 h): 7e-05 ± 1.5e-05 µM | cytotoxicity in words [3]: exceptionally cytotoxic | IC50 (AA8; [4]): 0.00014 ± 2.2e-05 µM | IC50 (SKOV3 [1]; Homo sapiens, SK-OV-3, 4 h): 0.00025 ± 3.7e-05 µM

Compound: COc1cc2cc(C(=O)N3CC(CCl)c4c3cc(N)c3ncccc43)[nH]c2c(OC)c1OC (centres unmarked) [Compound 27, 5-Amino-1-(chloromethyl)-3-[(5,6,7-trimethoxyindol-2-yl)carbonyl]-2,3-dihydro-1H-pyrrolo[3,2-f]quinoline]
IC50 (EMT6; Mus musculus, EMT6, 4 h aerobic exposure, mean ± sem): 0.0026 ± 0.0005 µM | IC50 (UV4 cell line; Cricetulus griseus, UV4, 4 h aerobic exposure, mean ± sem): 0.0029 ± 0.006 µM | melting point: 258 to 263 °C | cytotoxicity in words [3]: exceptionally cytotoxic | IC50 (AA8; Cricetulus griseus, CHO-AA8, 4 h aerobic exposure, mean ± sem): 0.0079 ± 0.002 µM | IC50 (SKOV3 [1]; Homo sapiens, SK-OV-3, 4 h aerobic exposure, mean ± sem): 0.012 ± 0.0023 µM

Compound: COc1cc2cc(C(=O)N3CC(CCl)c4c3cc(NCCN)c3ccccc43)[nH]c2c(OC)c1OC.Cl.Cl (centres unmarked) [Compound 29, 5-(2-aminoethylamino)-3-[(5,6,7-trimethoxyindol-2-yl)carbonyl]-1-(chloromethyl)-1,2-dihydro-3H-benz[e]indole dihydrochloride]
IC50 (EMT6; Mus musculus, EMT6, 4 h): 0.0028 µM | IC50 (UV4 cell line; Cricetulus griseus, UV4, 4 h): 0.0041 ± 0.0003 µM | melting point: > 200 °C | cytotoxicity in words [3]: exceptionally cytotoxic | IC50 (AA8; [4]): 0.0058 ± 0.0007 µM | IC50 (SKOV3 [1]; Homo sapiens, SK-OV-3, 4 h): 0.0062 µM

Compound: C1CNCCNCCNCCN1 [Cyclen, reference compound]
IC50 (EMT6; [6]): 9710 ± 2710 µM | IC50 (UV4 cell line; [6]): 13800 ± 2180 µM | IC50 (AA8; [6]): 13300 ± 2670 µM | IC50 (SKOV3 [1]; [6]): 11500 ± 4410 µM

Other lines, results leading:

melting point: 176 to 179 °C
Compound: CN(C)CCOC1(O)C=CC2=NC(C(=O)N3CC(CCl)c4c3ccc3ncccc43)=CC2=C1 (centres unmarked)

melting point: 186 to 189 °C
Compound: COc1ccc2[nH]c(C(=O)N3CC(CCl)c4c3cc(O)c3ncccc43)cc2c1 (centres unmarked)

melting point: 208 to 211 °C
Compound: COc1ccc(/C=C/C(=O)N2CC(CCl)c3c2cc(O)c2ncccc32)cc1 (centres unmarked)

melting point: 301 to 303 °C
Compound: Cl.Cl.Cl.Cl.O=S(=O)(O)CCCCN1CCNCCNCCNCC1
